Tests used:
[1] = biological target: T1, hMeprin α (Homo sapiens, UniProt Q16819); experiment: Enzymatic assay, quenched peptide substrate cleavage, method B; format: biochemical; conditions: geometric mean (geometric SD factor in parentheses); for Ki: Morrison's equation, read-out: Meprin alpha Ki(app); for IC50: read-out: Meprin alpha IC50
T1 sequence (Q16819 66-746): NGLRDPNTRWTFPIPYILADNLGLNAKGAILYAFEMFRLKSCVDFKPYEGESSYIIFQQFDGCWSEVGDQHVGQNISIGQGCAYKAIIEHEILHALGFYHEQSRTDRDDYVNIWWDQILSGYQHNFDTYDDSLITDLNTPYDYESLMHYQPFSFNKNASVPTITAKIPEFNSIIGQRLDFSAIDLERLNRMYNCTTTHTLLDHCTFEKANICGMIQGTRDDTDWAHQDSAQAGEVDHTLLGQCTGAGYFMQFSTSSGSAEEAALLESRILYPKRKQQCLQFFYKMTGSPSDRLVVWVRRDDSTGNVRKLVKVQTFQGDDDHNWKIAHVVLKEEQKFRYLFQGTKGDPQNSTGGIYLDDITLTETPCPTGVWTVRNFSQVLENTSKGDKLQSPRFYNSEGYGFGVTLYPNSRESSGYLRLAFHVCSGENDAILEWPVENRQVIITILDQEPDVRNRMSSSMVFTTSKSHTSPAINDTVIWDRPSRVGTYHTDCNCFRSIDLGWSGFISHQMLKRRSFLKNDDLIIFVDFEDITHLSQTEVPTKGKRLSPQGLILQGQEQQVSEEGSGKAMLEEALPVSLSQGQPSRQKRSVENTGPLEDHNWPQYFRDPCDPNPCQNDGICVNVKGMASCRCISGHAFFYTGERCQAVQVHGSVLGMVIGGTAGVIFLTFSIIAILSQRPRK
Experimental: (§1) The determination of enzymatic activity was based on the cleavage of internally quenched peptide substrates. A typical assay of 250 μl total volume measured in black 96 well plates consisted of 100 μl buffer, 50 μl enzyme at a final concentration of 5e-8 M to 2e-10 M, 50 μl substrate (0.15 to 80 μM, in buffer, 0.5% DMSO) and 50 μl inhibitor solution (in buffer, 1% DMSO). In case of 125 μl assay volume (black 96 half area well plates) all volumes were cut in half. Enzymatic activity of ADAMs was measured in 384 well plates with 60 μl total assay volume consisting of 20 μl inhibitor, 20 μl buffer, 10 μl enzyme and 10 μl substrate.
(§2) Based on method B Ki^(app) values were determined using Morrison's equation. All measurements were performed using a fluorescence plate reader (FLUOSTAR OPTIMA, BMG Labtech) at 30° C. The kinetic parameters were determined at least in duplicates on separate days. The excitation/emission wavelength was 340/420 nm. The kinetic data was evaluated using GRAFIT software (version 7.0.3, Erithacus Software).

[2] = biological target: T2, hMeprin β (Homo sapiens, UniProt Q16820); experiment: as above; format: biochemical; conditions: geometric mean (geometric SD factor in parentheses); for Ki: Morrison's equation, read-out: Meprin beta Ki(app); for IC50: read-out: Meprin beta IC50
T2 sequence (Q16820 62-701): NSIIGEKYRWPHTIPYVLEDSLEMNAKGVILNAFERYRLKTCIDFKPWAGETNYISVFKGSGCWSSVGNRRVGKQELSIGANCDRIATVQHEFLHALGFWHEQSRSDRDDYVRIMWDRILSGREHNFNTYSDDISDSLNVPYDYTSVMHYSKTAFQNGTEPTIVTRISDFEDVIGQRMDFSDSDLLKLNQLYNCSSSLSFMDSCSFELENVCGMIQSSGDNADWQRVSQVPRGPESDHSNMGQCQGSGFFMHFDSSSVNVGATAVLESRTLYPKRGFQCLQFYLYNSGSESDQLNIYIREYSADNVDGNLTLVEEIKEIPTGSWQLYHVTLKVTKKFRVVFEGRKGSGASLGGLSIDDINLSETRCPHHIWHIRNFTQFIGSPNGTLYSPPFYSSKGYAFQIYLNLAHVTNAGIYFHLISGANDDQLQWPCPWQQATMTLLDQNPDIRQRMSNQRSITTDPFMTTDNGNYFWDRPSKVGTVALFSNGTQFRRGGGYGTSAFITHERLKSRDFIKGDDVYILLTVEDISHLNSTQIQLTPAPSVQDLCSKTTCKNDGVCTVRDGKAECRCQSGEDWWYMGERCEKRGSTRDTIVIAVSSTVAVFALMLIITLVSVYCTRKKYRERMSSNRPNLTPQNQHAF
Experimental: as §1, §2

Compound COc1ccc(-c2nc3ccccc3n2CC(=O)NO)cc1 [Example 15, 2-[2-(4-Methoxyphenyl)benzimidazol-1-yl]ethanehydroxamic acid] has a Ki [1] of 0.094 µM, an IC50 [1] of 0.095 µM and a Ki [2] of 0.252 µM. It also gave an IC50 [2] of 0.257 µM.
Work on O=C(Cn1c(-c2ccccc2C(=O)O)nc2ccccc21)NO [Example 17, 2-[1-[2-(Hydroxyamino)-2-oxo-ethyl]benzimidazol-2-yl]benzoic acid] yielded a Ki [1] of 1.39 µM, an IC50 [1] of 1.43 µM and a Ki [2] of 13.2 µM. The IC50 [2] was 13.7 µM.
O=C(Cn1c(-c2cccc(C(=O)O)c2)nc2ccccc21)NO [Example 18, 3-[1-[2-(Hydroxyamino)-2-oxo-ethyl]benzimidazol-2-yl]benzoic acid] gave a Ki [1] of 0.062 µM, an IC50 [1] of 0.063 µM and a Ki [2] of 0.16 µM. For the same compound, the IC50 [2] was 0.164 µM.
For O=C(Cn1c(-c2ccc(C(=O)O)cc2)nc2ccccc21)NO [Example 19, 4-[1-[2-(Hydroxyamino)-2-oxo-ethyl]benzimidazol-2-yl]benzoic acid], the Ki [1] was 0.071 µM, the IC50 [1] was 0.075 µM and the Ki [2] was 0.119 µM. It also gave an IC50 [2] of 0.127 µM.
Compound O=C(Cn1c(-c2ccc(Cl)c(O)c2F)nc2c(C(=O)O)cccc21)NO [Example 20, 2-(4-Chloro-2-fluoro-3-hydroxy-phenyl)-1-[2-(hydroxyamino)-2-oxo-ethyl]benzimidazole-4-carboxylic acid] has a Ki [1] of 0.903 µM, an IC50 [1] of 0.908 µM and a Ki [2] of 1.16 µM. For the same compound, the IC50 [2] was 1.19 µM.
In the case of O=C(Cn1c(-c2ccc(Cl)c(O)c2F)nc2cc(C(=O)O)ccc21)NO [Example 21, 2-(4-Chloro-2-fluoro-3-hydroxy-phenyl)-1-[2-(hydroxyamino)-2-oxo-ethyl]benzimidazole-5-carboxylic acid], the Ki [1] is reported as 0.435 µM, the IC50 [1] is reported as 0.443 µM and the Ki [2] is reported as 0.119 µM. The IC50 [2] was 0.125 µM.
Compound O=C(Cn1c(-c2ccc(Cl)c(O)c2F)nc2ccc(C(=O)O)cc21)NO [Example 22, 2-(4-Chloro-2-fluoro-3-hydroxy-phenyl)-3-[2-(hydroxyamino)-2-oxo-ethyl]benzimidazole-5-carboxylic acid] has a Ki [1] of 0.006 µM, an IC50 [1] of 0.006 µM and a Ki [2] of 0.007 µM. It also gave an IC50 [2] of 0.008 µM.
In the case of Cc1n[nH]c(-c2ccccc2)c1CC(=O)NO [Example 44, 2-(3-Methyl-5-phenyl-1H-pyrazol-4-yl)ethanehydroxamic acid], the Ki [1] is reported as 0.302 µM, the IC50 [1] is reported as 0.31 µM and the Ki [2] is reported as 2.11 µM. The IC50 [2] was 2.17 µM.
O=C(Cc1c(C2CCCC2)n[nH]c1-c1ccccc1)NO [Example 45, 2-(3-Cyclopentyl-5-phenyl-1H-pyrazol-4-yl)ethanehydroxamic acid] gave a Ki [1] of 0.006 µM, an IC50 [1] of 0.006 µM and a Ki [2] of 0.32 µM. For the same compound, the IC50 [2] was 0.327 µM.
With O=C(Cc1c(Cc2ccccc2)n[nH]c1-c1ccccc1)NO [Example 46, 2-(3-Benzyl-5-phenyl-1H-pyrazol-4-yl)ethanehydroxamic acid] the Ki [1] was 0.07 µM, the IC50 [1] was 0.071 µM and the Ki [2] was 1.73 µM. It also gave an IC50 [2] of 1.78 µM.
In the case of COc1ccc(-c2n[nH]c(-c3ccccc3)c2CC(=O)NO)cc1 [Example 48, 2-[3-(4-Methoxyphenyl)-5-phenyl-1H-pyrazol-4-yl]ethanehydroxamic acid], the Ki [1] is reported as 0.001 µM, the IC50 [1] is reported as 0.001 µM and the Ki [2] is reported as 0.062 µM. The IC50 [2] was 0.064 µM.
For O=C(Cc1c(-c2cccc(C(=O)O)c2)n[nH]c1-c1ccccc1)NO [Example 51, 3-[4-[2-(Hydroxyamino)-2-oxo-ethyl]-5-phenyl-1H-pyrazol-3-yl]benzoic acid], the Ki [1] was 0.008 µM, the IC50 [1] was 0.008 µM and the Ki [2] was 0.047 µM. It also gave an IC50 [2] of 0.052 µM.
O=C(Cc1c(-c2ccc(C(=O)O)cc2)n[nH]c1-c1ccccc1)NO [Example 52, 4-[4-[2-(Hydroxyamino)-2-oxo-ethyl]-5-phenyl-1H-pyrazol-3-yl]benzoic acid] showed a Ki [1] of 0.017 µM, an IC50 [1] of 0.018 µM and a Ki [2] of 0.116 µM. It also gave an IC50 [2] of 0.13 µM.
Work on O=C(Cc1c(-c2ccc(Cl)c(O)c2F)n[nH]c1-c1ccccc1)NO [Example 53, 2-[3-(4-Chloro-2-fluoro-3-hydroxy-phenyl)-5-phenyl-1H-pyrazol-4-yl]ethanehydroxamic acid] yielded a Ki [1] of 0.002 µM, an IC50 [1] of 0.003 µM and a Ki [2] of 0.061 µM. The IC50 [2] was 0.061 µM.
For N#Cc1cccc(-c2n[nH]c(-c3ccccc3)c2CC(=O)NO)c1 [Example 55, 2-[3-(3-Cyanophenyl)-5-phenyl-1H-pyrazol-4-yl]ethanehydroxamic acid], the Ki [1] was 0.005 µM, the IC50 [1] was 0.005 µM and the Ki [2] was 0.335 µM. It also gave an IC50 [2] of 0.346 µM.
In the case of N#Cc1ccc(-c2n[nH]c(-c3ccccc3)c2CC(=O)NO)cc1 [Example 56, 2-[3-(4-Cyanophenyl)-5-phenyl-1H-pyrazol-4-yl]ethanehydroxamic acid], the Ki [1] is reported as 0.014 µM, the IC50 [1] is reported as 0.014 µM and the Ki [2] is reported as 0.995 µM. The IC50 [2] was 1.02 µM.
O=C(Cc1c(-c2cccc(C(=O)O)c2)n[nH]c1-c1cccc(C(=O)O)c1)NO [Example 58, 3-[3-(3-Carboxyphenyl)-4-[2-(hydroxyamino)-2-oxo-ethyl]-1H-pyrazol-5-yl]benzoic acid] gave a Ki [1] of 0.01 µM, an IC50 [1] of 0.011 µM and a Ki [2] of 0.014 µM. It also gave an IC50 [2] of 0.017 µM.
O=C(Cc1c(-c2ccc(C(=O)O)cc2)n[nH]c1-c1ccc(C(=O)O)cc1)NO [Example 59, 4-[3-(4-Carboxyphenyl)-4-[2-(hydroxyamino)-2-oxo-ethyl]-1H-pyrazol-5-yl]benzoic acid] gave a Ki [1] of 0.056 µM, an IC50 [1] of 0.056 µM and a Ki [2] of 0.116 µM. For the same compound, the IC50 [2] was 0.128 µM.
For O=C(Cc1c(-c2ccc(Cl)c(O)c2F)n[nH]c1-c1ccc(Cl)c(O)c1F)NO [Example 60, 2-[3,5-Bis(4-chloro-2-fluoro-3-hydroxy-phenyl)-1H-pyrazol-4-yl]ethanehydroxamic acid], the Ki [1] was 0.004 µM, the IC50 [1] was 0.004 µM and the Ki [2] was 0.014 µM. The IC50 [2] was 0.014 µM.
Compound O=C(Cc1c(-c2ccc3c(c2)OCO3)n[nH]c1-c1cccc(C(=O)O)c1)NO [Example 61, 3-[3-(1,3-Benzodioxol-5-yl)-4-[2-(hydroxyamino)-2-oxo-ethyl]-1H-pyrazol-5-yl)benzoic acid] has a Ki [1] of 0.003 µM, an IC50 [1] of 0.003 µM and a Ki [2] of 0.044 µM. It also gave an IC50 [2] of 0.045 µM.
With O=C(Cc1c(-c2ccc3c(c2)OCO3)n[nH]c1-c1ccc(C(=O)O)cc1)NO [Example 62, 4-[3-(1,3-Benzodioxol-5-yl)-4-[2-(hydroxyamino)-2-oxo-ethyl]-1H-pyrazol-5-yl)benzoic acid] the Ki [1] was 0.01 µM, the IC50 [1] was 0.011 µM and the Ki [2] was 0.093 µM. The IC50 [2] was 0.094 µM.
O=C(Cc1c(-c2cccc(C(=O)O)c2)n[nH]c1-c1cc(F)c(O)c(Cl)c1)NO [Example 64, 3-[5-(3-Chloro-5-fluoro-4-hydroxy-phenyl)-4-[2-(hydroxyamino)-2-oxo-ethyl]-1H-pyrazol-3-yl]benzoic acid] gave a Ki [1] of 0.00014 µM, an IC50 [1] of 0.00024 µM and a Ki [2] of 0.00024 µM. The IC50 [2] was 0.00026 µM.
In the case of O=C(Cc1c(-c2ccc(C(=O)O)cc2)n[nH]c1-c1ccc(Cl)c(O)c1F)NO [Example 65, 4-[5-(4-Chloro-2-fluoro-3-hydroxy-phenyl)-4-[2-(hydroxyamino)-2-oxo-ethyl]-1H-pyrazol-3-yl]benzoic acid], the Ki [1] is reported as 0.01 µM, the IC50 [1] is reported as 0.01 µM and the Ki [2] is reported as 0.011 µM. The IC50 [2] was 0.012 µM.

— patent US20250388544A1, “HETEROAROMATIC INHIBITORS OF ASTACIN PROTEINASES” (VIVORYON THERAPEUTICS N.V., priority 2019, published 2025)
